Assay results as given in PubChem BioAssay (NCI).
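Interpolation was linear, between the two tested concentrations surrounding the appropriate level; five concentrations were tested over 48 hours in 96-well plates. Here, GI50 denotes the concentration required for 50% inhibition of growth. TGI: total growth inhibition.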

Legend:
Experiment in all cases: growth of human tumour cells (NCI), 48 h
OVCAR-3 ovarian = tested on: OVCAR-3 ovarian
EKVX NSCLC = tested on: EKVX NSCLC
MCF7 breast = tested on: MCF7 breast
TK-10 renal = tested on: TK-10 renal
NCI-H460 lung = tested on: NCI-H460 lung
DU-145 prostate = tested on: DU-145 prostate
PC-3 prostate = tested on: PC-3 prostate
HCT-116 colon = tested on: HCT-116 colon
NCI-H23 lung = tested on: NCI-H23 lung
HL-60(TB) leukemia = tested on: HL-60(TB) leukemia
SNB-75 CNS = tested on: SNB-75 CNS
BT-549 breast = tested on: BT-549 breast
HS 578T breast = tested on: HS 578T breast
SW-620 colon = tested on: SW-620 colon
K-562 leukemia = tested on: K-562 leukemia
SR leukemia = tested on: SR leukemia
HOP-62 NSCLC = tested on: HOP-62 NSCLC
SK-MEL-5 melanoma = tested on: SK-MEL-5 melanoma
ACHN renal = tested on: ACHN renal
NCI-H226 lung = tested on: NCI-H226 lung
OVCAR-5 ovarian = tested on: OVCAR-5 ovarian
SK-MEL-2 melanoma = tested on: SK-MEL-2 melanoma
M14 melanoma = tested on: M14 melanoma
UACC-257 melanoma = tested on: UACC-257 melanoma
A549 NSCLC = tested on: A549 NSCLC
SF-268 CNS = tested on: SF-268 CNS
SNB-19 CNS = tested on: SNB-19 CNS
MALME-3M melanoma = tested on: MALME-3M melanoma
SN12C renal = tested on: SN12C renal
LOX IMVI melanoma = tested on: LOX IMVI melanoma
HOP-92 NSCLC = tested on: HOP-92 NSCLC
IGROV1 ovarian = tested on: IGROV1 ovarian
COLO 205 colon = tested on: COLO 205 colon
RXF 393 renal = tested on: RXF 393 renal
MDA-MB-231 breast = tested on: MDA-MB-231 breast
786-0 renal = tested on: 786-0 renal
U251 CNS = tested on: U251 CNS
SK-MEL-28 melanoma = tested on: SK-MEL-28 melanoma
NCI-H522 lung = tested on: NCI-H522 lung
NCI/ADR-RES ovarian = tested on: NCI/ADR-RES ovarian
KM12 colon = tested on: KM12 colon
SK-OV-3 ovarian = tested on: SK-OV-3 ovarian
MDA-MB-435 = tested on: MDA-MB-435
HCT-15 colon = tested on: HCT-15 colon
A498 renal = tested on: A498 renal
HCC-2998 colon = tested on: HCC-2998 colon
CAKI-1 renal = tested on: CAKI-1 renal
MOLT-4 leukemia = tested on: MOLT-4 leukemia
CCRF-CEM leukemia = tested on: CCRF-CEM leukemia
T-47D breast = tested on: T-47D breast
RPMI-8226 leukemia = tested on: RPMI-8226 leukemia
OVCAR-4 ovarian = tested on: OVCAR-4 ovarian
OVCAR-8 ovarian = tested on: OVCAR-8 ovarian
UO-31 renal = tested on: UO-31 renal
HT29 colon = tested on: HT29 colon
SF-295 CNS = tested on: SF-295 CNS
SF-539 CNS = tested on: SF-539 CNS
UACC-62 melanoma = tested on: UACC-62 melanoma

## CNCCN(C)c1ccc(Nc2cc(NC3CC3)n3ncc(C#N)c3n2)cc1NC(C)=O
OVCAR-3 ovarian
  GI50: < 0.01 µM
  TGI: 0.869 µM
EKVX NSCLC
  GI50: < 0.013 µM
  TGI: 4.04 µM
MCF7 breast
  GI50: < 0.01 µM
  TGI: 1.59 µM
TK-10 renal
  GI50: < 0.01 µM
  TGI: 0.0453 µM
NCI-H460 lung
  GI50: < 0.01 µM
  TGI: 12.4 µM
DU-145 prostate
  GI50: 0.0452 µM
  TGI: > 100 µM
PC-3 prostate
  GI50: < 0.01 µM
  TGI: 13.2 µM
HCT-116 colon
  GI50: < 0.01 µM
  TGI: 0.195 µM
NCI-H23 lung
  GI50: < 0.01 µM
  TGI: 0.237 µM
HL-60(TB) leukemia
  GI50: < 0.01 µM
  TGI: 0.498 µM
SNB-75 CNS
  GI50: < 0.01 µM
  TGI: 0.0519 µM
BT-549 breast
  GI50: < 0.014 µM
  TGI: 0.165 µM
HS 578T breast
  GI50: < 0.01 µM
  TGI: 0.117 µM
SW-620 colon
  GI50: < 0.01 µM
  TGI: 0.209 µM
K-562 leukemia
  GI50: < 0.0138 µM
  TGI: > 40.1 µM
SR leukemia
  GI50: < 0.01 µM
  TGI: 5.73 µM
HOP-62 NSCLC
  GI50: 0.0275 µM
  TGI: > 54.4 µM
SK-MEL-5 melanoma
  GI50: < 0.01 µM
  TGI: 0.462 µM
ACHN renal
  GI50: 0.073 µM
  TGI: 15.4 µM
NCI-H226 lung
  GI50: < 0.01 µM
  TGI: 1.23 µM
OVCAR-5 ovarian
  GI50: < 0.01 µM
  TGI: > 28.5 µM
SK-MEL-2 melanoma
  GI50: 0.0202 µM
  TGI: 0.445 µM
M14 melanoma
  GI50: < 0.0118 µM
  TGI: 0.452 µM
UACC-257 melanoma
  GI50: 0.0163 µM
  TGI: 10.7 µM
A549 NSCLC
  GI50: 0.0188 µM
  TGI: 12.5 µM
SF-268 CNS
  GI50: 0.0182 µM
  TGI: 16.4 µM
SNB-19 CNS
  GI50: < 0.01 µM
  TGI: > 100 µM
MALME-3M melanoma
  GI50: 0.0166 µM
  TGI: 3.18 µM
SN12C renal
  GI50: 0.0752 µM
  TGI: > 64.2 µM
LOX IMVI melanoma
  GI50: 0.0204 µM
  TGI: 0.39 µM
HOP-92 NSCLC
  GI50: < 0.01 µM
  TGI: 0.0466 µM
IGROV1 ovarian
  GI50: < 0.0107 µM
  TGI: 0.961 µM
COLO 205 colon
  GI50: < 0.01 µM
  TGI: 2.33 µM
RXF 393 renal
  GI50: 0.01 µM
  TGI: 0.0342 µM
MDA-MB-231 breast
  GI50: < 0.01 µM
  TGI: 2.17 µM
786-0 renal
  GI50: 0.0436 µM
  TGI: 13.5 µM
U251 CNS
  GI50: < 0.01 µM
  TGI: > 100 µM
SK-MEL-28 melanoma
  GI50: 0.0393 µM
  TGI: 18.6 µM
NCI-H522 lung
  GI50: < 0.01 µM
  TGI: 1.13 µM
NCI/ADR-RES ovarian
  GI50: 3.36 µM
  TGI: > 100 µM
KM12 colon
  GI50: 0.0259 µM
  TGI: > 80.1 µM
SK-OV-3 ovarian
  GI50: 0.0357 µM
  TGI: 0.668 µM
MDA-MB-435
  GI50: 0.0161 µM
  TGI: > 41.1 µM
HCT-15 colon
  GI50: 0.29 µM
  TGI: > 100 µM
A498 renal
  GI50: < 0.0117 µM
  TGI: < 0.026 µM
HCC-2998 colon
  GI50: 0.0175 µM
  TGI: 16.4 µM
CAKI-1 renal
  GI50: 0.0123 µM
  TGI: 0.153 µM
MOLT-4 leukemia
  GI50: 0.0186 µM
CCRF-CEM leukemia
  GI50: < 0.01 µM
  TGI: 6 µM
T-47D breast
  GI50: < 0.01 µM
  TGI: 1.34 µM
RPMI-8226 leukemia
  GI50: < 0.01 µM
  TGI: 2.64 µM
OVCAR-4 ovarian
  GI50: < 0.01 µM
  TGI: > 39.2 µM
OVCAR-8 ovarian
  GI50: 0.0592 µM
  TGI: > 100 µM
UO-31 renal
  GI50: 0.143 µM
  TGI: 3.79 µM
HT29 colon
  GI50: < 0.01 µM
  TGI: > 100 µM
SF-295 CNS
  GI50: 0.0277 µM
  TGI: 12.5 µM
SF-539 CNS
  GI50: 0.014 µM
  TGI: 2.36 µM
UACC-62 melanoma
  GI50: 0.0195 µM
  TGI: 0.149 µM
